The numbers were not newly measured in patent publication US20230043979A1, “PHOSPHODIESTERASE-4 INHIBITOR COMBINATIONS, METHODS OF MAKING, AND METHODS OF USE THEREOF” (VK RESEARCH ASSOCIATES INC., priority 2021, published 2023), which cites them from elsewhere.

The conditions of this data set: for Median plasma/elimination Half-life (T1/2): Table 1, PDE4 inhibitors, in h; for half-life / median time to maximum concentration: oral administration.

For `COc1ccc([C@]2(C#N)CC[C@@H](C(=O)O)CC2)cc1OC1CCCC1` [Cilomilast], the “Median plasma/elimination Half-life (T1/2)” value is 7. As for `CCOc1cc([C@@H](CS(C)(=O)=O)N2C(=O)c3cccc(NC(C)=O)c3C2=O)ccc1OC` [Apremilast], the “Median plasma/elimination Half-life (T1/2)” value was 6 to 9. For the compound `O=C(Nc1c(Cl)cncc1Cl)c1ccc(OC(F)F)c(OCC2CC2)c1` [Roflumilast], the “Median plasma/elimination Half-life (T1/2)” value was 17 - 30, the half-life is 17 to 30 h and the “median time to maximum concentration” value is 1 to 2 h. Regarding `COc1ccc(C2CNC(=O)C2)cc1OC1CCCC1` (stereo not shown) [Rolipram], the “Median plasma/elimination Half-life (T1/2)” value is 3, the half-life result is “about 3 hours” and the “median time to maximum concentration” value was “about 30 minutes”.

For the compound `N#Cc1ccc(Oc2ccc3c(c2)COB3O)cc1` [Crisaborole], the “Median plasma/elimination Half-life (T1/2)” value is 11.9 ± 8.3.

Consider `CC(C)C(=O)c1c(C(C)C)nn2ccccc12` [Ibudilast], for which the “Median plasma/elimination Half-life (T1/2)” value is given as 19.

Usually half-life stands for how long it takes for the measured level to halve.
